Test results from patent publication US7897780B2, “Method for controlling phytopathogenic fungi using silylated carboxamides” (Bayer CropScience AG, priority 2004, dated 2011).

How the values were obtained:
Alternaria mali = assay: In vitro test for the ED50 determination in microorganisms; assay type: cell-based; settings: 50% inhibition of fungal growth, potato dextrose medium, 20° C., 3-5 days, photometric 620 nm, tested at 0.05, 0.5, 5 and 50 ppm
Description: A methanolic solution of the active compound to be tested, admixed with emulsifier PS16, is pipetted into the wells of a microtitre plate. After the solvent has evaporated, 200 μl of potato dextrose medium are added to each well. Beforehand, a suitable concentration of spores or mycelium of the fungus to be tested was added to the medium. The resulting concentrations of active compound are 0.05, 0.5, 5 and 50 ppm. The resulting concentration of the emulsifier is 300 ppm.
The plates are then incubated on a shaker at a temperature of 20° C. for 3-5 days, until sufficient growth can be observed in the untreated control.
Evaluation is carried out photometrically at a wavelength of 620 nm. The dose of active compound which causes 50% inhibition of fungal growth compared to the untreated control (ED50) is calculated from data measured at different concentrations.

Puccinia recondita = assay: Puccinia test (wheat)/protective; assay type: in vivo; settings: protective spray, application rate 500 g/ha, evaluation 10 days after inoculation
Description: To produce a suitable preparation of active compound, 1 part by weight of active compound is mixed with the stated amounts of solvent and emulsifier, and the concentrate is diluted with water to the desired concentration.
To test for protective activity, young plants are sprayed with the preparation of active compound at the stated application rate. After the spray coating has dried on, the plants are sprayed with a conidia suspension of Puccinia recondita. The plants remain in an incubation cabin at 20° C. and 100% relative atmospheric humidity for 48 hours.
The plants are then placed in a greenhouse at a temperature of about 20° C. and a relative atmospheric humidity of 80% to promote the development of rust pustules.
(§1) Evaluation is carried out 10 days after the inoculation. 0% means an efficacy which corresponds to that of the control, whereas an efficacy of 100% means that no infection is observed.

Botrytis cinerea = assay: Botrytis test (bean)/protective; assay type: in vivo; settings: protective spray, application rate 500 g/ha, evaluation 2 days after inoculation
Description: (§2) To produce a suitable preparation of active compound, 1 part by weight of active compound is mixed with the stated amounts of solvents and emulsifier, and the concentrate is diluted with water to the desired concentration.
To test for protective activity, young plants are sprayed with the preparation of active compound at the stated application rate. After the spray coating has dried on, 2 small pieces of agar colonized by Botrytis cinerea are placed onto each leaf. The inoculated plants are placed in a dark chamber at about 20° C. and 100% atmospheric humidity.
The size of the infected areas of the leaves is evaluated 2 days after the inoculation. 0% means an efficacy which corresponds to that of the control, whereas an efficacy of 100% means that no infection is observed.

Podosphaera leucotricha = assay: Podosphaera test (apple)/protective; assay type: in vivo; settings: protective spray, application rate 100 g/ha, evaluation 10 days after inoculation
Description: as §2
(§3) To test for protective activity, young plants are sprayed with the preparation of active compound at the stated application rate. After the spray coating has dried on, the plants are inoculated with an aqueous spore suspension of the apple mildew pathogen Podosphaera leucotricha. The plants are then placed in a greenhouse at about 23° C. and a relative atmospheric humidity of about 70%.
as §1

Venturia inaequalis = assay: Venturia test (apple)/protective; assay type: in vivo; settings: protective spray, application rate 100 g/ha, evaluation 10 days after inoculation
Description: as §2
To test for protective activity, young plants are sprayed with the preparation of active compound at the stated application rate. After the spray coating has dried on, the plants are inoculated with an aqueous conidia suspension of the apple scab pathogen Venturia inaequalis and then remain in an incubation cabin at about 20° C. and 100% relative atmospheric humidity for 1 day.
The plants are then placed in a greenhouse at about 21° C. and a relative atmospheric humidity of about 90%.
as §1

Sphaerotheca fuliginea = assay: Sphaerotheca test (cucumber)/protective; assay type: in vivo; settings: protective spray, application rate 100 g/ha, evaluation 7 days after inoculation
Description: as §2
as §3, with “Sphaerotheca fuliginea.” for “the apple mildew pathogen Podosphaera leucotricha.”
Evaluation was carried out 7 days after the inoculation. 0% means an efficacy which corresponds to that of the control, whereas an efficacy of 100% means that no infection is observed.

[1] = log P determination by HPLC on reversed-phase column (EEC Directive 79/831 Annex V.A8); assay type: physicochemical; settings: reversed-phase C18 HPLC column, pH 2.3, C18, 43° C., 0.1% aqueous phosphoric acid/acetonitrile gradient
Description: The given log P values were determined in accordance with EEC Directive 79/831 Annex V.A8 by HPLC (High Performance Liquid Chromatography) on a reversed-phase column (C 18). Temperature: 43° C. Mobile phases for the determination in the acidic range (pH 2.3): 0.1% aqueous phosphoric acid, acetonitrile; linear gradient from 10% acetonitrile to 90% acetonitrile. Calibration was carried out using unbranched alkan-2-ones (having 3 to 16 carbon atoms) with known logP values (determination of the logP values by the retention times using linear interpolation between two successive alkanones). The lambda max values were determined in the maxima of the chromatographic signals using the UV spectra from 200 nm to 400 nm.

SMILES: Cn1cc(C(=O)Nc2ccsc2CC[Si](C)(C)C)c(C(F)(F)F)n1 [drawing 100]
- ED50 value (Alternaria mali): <0.05 ppm

SMILES: Cc1nc(C(F)F)c(C(=O)Nc2ccsc2CC[Si](C)(C)C)s1 [drawing 101]
- ED50 value (Alternaria mali): <0.05 ppm

SMILES: Cc1nc(C(F)F)c(C(=O)Nc2ccsc2CC[Si](C)(C)C)s1 [drawing 96]
- Efficacy in % (Puccinia recondita): 100%

SMILES: Cn1cc(C(=O)Nc2ccsc2CC[Si](C)(C)C)c(C(F)F)n1 [drawing 92]
- Efficacy in % (Botrytis cinerea): 100%

SMILES: Cc1nc(C(F)F)c(C(=O)Nc2ccsc2CC[Si](C)(C)C)s1 [drawing 73]
- Efficacy in % (Podosphaera leucotricha): 100%

SMILES: Cn1cc(C(=O)Nc2ccsc2CC[Si](C)(C)C)c(I)n1 [drawing 89]
- Efficacy in % (Venturia inaequalis): 100%

SMILES: Cc1nn(C)c(F)c1C(=O)Nc1ccsc1CC[Si](C)(C)C [drawing 93]
- Efficacy in % (Botrytis cinerea): 100%

SMILES: Cc1nc(C(F)F)c(C(=O)Nc2ccsc2CC[Si](C)(C)C)s1 [drawing 84]
- Efficacy in % (Venturia inaequalis): 100%

SMILES: Cn1cc(C(=O)Nc2ccsc2CC[Si](C)(C)C)c(I)n1 [drawing 83]
- Efficacy in % (Sphaerotheca fuliginea): 98%

SMILES: Cn1cc(C(=O)Nc2ccsc2CC[Si](C)(C)C)c(C(F)(F)F)n1 [drawing 79]
- Efficacy in % (Sphaerotheca fuliginea): 100%

SMILES: Cn1cc(C(=O)Nc2ccsc2CC[Si](C)(C)C)c(C(F)F)n1 [drawing 86]
- Efficacy in % (Venturia inaequalis): 100%

SMILES: Cc1nc(C(F)F)c(C(=O)Nc2ccsc2CC[Si](C)(C)C)s1 [drawing 90]
- Efficacy in % (Botrytis cinerea): 100%

SMILES: Cn1cc(C(=O)Nc2ccsc2CC[Si](C)(C)C)c(C(F)(F)F)c1 [drawing 94]
- Efficacy in % (Botrytis cinerea): 100%

SMILES: Cc1nn(C)c(F)c1C(=O)Nc1ccsc1CC[Si](C)(C)C [drawing 99]
- Efficacy in % (Puccinia recondita): 100%

SMILES: C[Si](C)(C)CCc1sccc1N [Example (III-1), 2-(2-trimethylsilanylethyl)thiophen-3-ylamine]
- chromatographic logP [1]: 1.78

SMILES: Cn1cc(C(=O)Nc2ccsc2CC[Si](C)(C)C)c(C(F)(F)F)c1 [drawing 82]
- Efficacy in % (Sphaerotheca fuliginea): 100%

SMILES: Cn1cc(C(=O)Nc2ccsc2CC[Si](C)(C)C)c(C(F)(F)F)c1 [drawing 77]
- Efficacy in % (Podosphaera leucotricha): 99%

SMILES: Cc1nn(C)c(F)c1C(=O)Nc1ccsc1CC[Si](C)(C)C [drawing 81]
- Efficacy in % (Sphaerotheca fuliginea): 100%

SMILES: Cn1cc(C(=O)Nc2ccsc2CC[Si](C)(C)C)c(C(F)(F)F)n1 [drawing 74]
- Efficacy in % (Podosphaera leucotricha): 100%

SMILES: Cn1cc(C(=O)Nc2ccsc2CC[Si](C)(C)C)c(C(F)F)n1 [drawing 75]
- Efficacy in % (Podosphaera leucotricha): 100%

SMILES: Cc1nc(C(F)F)c(C(=O)Nc2ccsc2CC[Si](C)(C)C)s1 [drawing 78]
- Efficacy in % (Sphaerotheca fuliginea): 100%

SMILES: Cn1cc(C(=O)Nc2ccsc2CC[Si](C)(C)C)c(C(F)(F)F)n1 [drawing 91]
- Efficacy in % (Botrytis cinerea): 100%

SMILES: Cn1cc(C(=O)Nc2ccsc2CC[Si](C)(C)C)c(C(F)F)n1 [drawing 105]
- ED50 value (Alternaria mali): <0.05 ppm

SMILES: Cn1cc(C(=O)Nc2ccsc2CC[Si](C)(C)C)c(I)n1 [drawing 95]
- Efficacy in % (Botrytis cinerea): 100%

SMILES: Cn1cc(C(=O)Nc2ccsc2CC[Si](C)(C)C)c(C(F)(F)F)c1 [drawing 88]
- Efficacy in % (Venturia inaequalis): 99%

SMILES: Cn1cc(C(=O)Nc2ccsc2CC[Si](C)(C)C)c(C(F)F)n1 [drawing 98]
- Efficacy in % (Puccinia recondita): 100%

SMILES: Cn1cc(C(=O)Nc2ccsc2CC[Si](C)(C)C)c(C(F)(F)F)c1 [drawing 104]
- ED50 value (Alternaria mali): <0.05 ppm

SMILES: C[Si](C)(C)CCc1sccc1NC(=O)c1cccnc1Cl [drawing 103]
- ED50 value (Alternaria mali): <0.05 ppm

SMILES: C[Si](C)(C)CCc1sccc1NC(=O)c1ccccc1C(F)(F)F
- ED50 value (Alternaria mali): <0.05 ppm

SMILES: Cn1cc(C(=O)Nc2ccsc2CC[Si](C)(C)C)c(C(F)(F)F)n1 [drawing 85]
- Efficacy in % (Venturia inaequalis): 100%

SMILES: Cc1nn(C)c(F)c1C(=O)Nc1ccsc1CC[Si](C)(C)C [drawing 76]
- Efficacy in % (Podosphaera leucotricha): 100%

SMILES: Cn1cc(C(=O)Nc2ccsc2CC[Si](C)(C)C)c(C(F)(F)F)n1 [drawing 97]
- Efficacy in % (Puccinia recondita): 100%

SMILES: Cc1nn(C)c(F)c1C(=O)Nc1ccsc1CC[Si](C)(C)C [drawing 87]
- Efficacy in % (Venturia inaequalis): 100%

SMILES: C[Si](C)(C)CCc1sccc1NC(=O)c1cccnc1Cl [Example 1, 2-chloro-N-{2-[2-(trimethylsilyl)ethyl]-3-thienyl}nicotinamide]
- chromatographic logP [1]: 3.65

SMILES: Cn1cc(C(=O)Nc2ccsc2CC[Si](C)(C)C)c(C(F)F)n1 [drawing 80]
- Efficacy in % (Sphaerotheca fuliginea): 100%
